Measured values from patent US8609173B2, “Compositions comprising sweetness enhancers and methods of making them” (Senomyx Inc., priority 2008, dated 2013).

Key:
Format in all cases: in vivo, Human
External panelists [1] = assay: Line scale (15-point sucrose equivalence) sensory test, Example 3A/3C, sucrose or LSB, pH 7.1; design: key to Average Sweetness / Average Bitterness: 15-point scale: 0 = 0% sucrose to 15 = 15% sucrose; references = 5
Method: (§1) Several types of sensory tests were used to determine the efficacy of 5-(neopentyloxy)-1H-benzo[c][1,2,6]thiadiazin-4-amino-2,2-dioxide in enhancing sweetness of sucrose. Two types of tests were conducted: • 1) Sensory scaling tests were performed using a 15-point percent sucrose equivalence scale for sweetness in order to evaluate sweetness enhancement 5-(neopentyloxy)-1H-benzo[c][1,2,6]thiadiazin-4-amino-2,2-dioxide in sucrose, or in fructose. • 2) Paired comparison tests (2-alternative forced choice difference tests) were used to determine sweetness equivalence for solutions of sucrose vs. 5-(neopentyloxy)-1H-benzo[c][1,2,6]thiadiazin-4-amino-2,2-dioxide or buffer vs. 5-(neopentyloxy)-1H-benzo[c][1,2,6]thiadiazin-4-amino-2,2-dioxide. Stimuli:
Tests were performed with sucrose or fructose. Sweetener was evaluated with and/or without 5-(neopentyloxy)-1H-benzo[c][1,2,6]thiadiazin-4-amino-2,2-dioxide at the appropriate concentration(s).
5-(Neopentyloxy)-1H-benzo[c][1,2,6]thiadiazin-4-amino-2,2-dioxide was prepared as a concentrated stock solution in ethanol to ensure dissolution of the compound. Therefore, all taste solutions contained 0.1% ethanol final concentration. Samples without compound also contained 0.1% ethanol. Low sodium phosphate buffer consists of 0.3 mM KCl, 0.5 mM Na2HPO4, and 0.175 mM KH2PO4.
In scaling test situations, the samples were rated on a 15-point scale for sweetness, ranging from 0=0% sucrose to 15=15% sucrose. To evaluate attributes other than sweetness, references are used for training and are prepared according to the table below. Note that each reference was given a score of 5 on the 15-point scale.
External panelists were used for the tests. The exact number of panelists is reported with test results. Subjects were instructed not to eat or drink anything (except water) for at least 1 hour prior to the test.
Panelists rinsed their mouths with water prior to starting any test. Samples were presented to panelists in a randomized, counterbalanced order. Panelists rinsed with water and had up to a 1 minute delay to clear the mouth of any tastes after each evaluation. Two replicates of each test were performed, unless otherwise noted.

Panelists [2] = assay: Paired comparison taste test, flavored water
Method: Two sweetened water solutions were prepared and compared: Flavored Water with 9% Sucrose vs. Flavored Water with 6% Sucrose+2.3 ppm (6.49 μM) of 5-(neopentyloxy)-1H-benzo[c][1,2,6]thiadiazin-4-amino-2,2-dioxide.
Mixing procedures: Dissolve acid into the water using a Lightnin® blender, mix for 5 minutes. Add sugar and continue to mix until dissolved. Add flavors last. Dissolve Compound A into a 0.50% propylene glycol mixture, add last and mix for another 5 minutes. Procedure:
Panelists evaluated two sweetened water solutions in a paired comparison taste test procedure and were instructed to select the sweeter of the two samples. They perform a total of three paired comparison tests each containing the following samples: Flavored Water with 9% Sucrose vs. Flavored Water with 6% Sucrose+2.3 ppm (6.49 μM) 5-(neopentyloxy)-1H-benzo[c][1,2,6]thiadiazin-4-amino-2,2-dioxide.
Two sweetened water solutions were prepared and compared: Flavored Water with 9% Sucrose vs. Flavored Water with 6% Sucrose+2.44 ppm (6.49 μM) of 3-(4-amino-2,2-dioxide-1H-benzo[c][1,2,6]thiadiazin-5-yloxy)-2′,2′-dimethyl-N-propylpropanamide.
Panelists evaluated two sweetened water solutions in a paired comparison taste test procedure and were instructed to select the sweeter of the two samples. They perform a total of three paired comparison tests each containing the following samples: Flavored Water with 9% Sucrose vs. Flavored Water with 6% Sucrose+2.44 ppm (6.49 μM) 3-(4-amino-2,2-dioxide-1H-benzo[c][1,2,6]thiadiazin-5-yloxy)-2′,2′-dimethyl-N-propylpropanamide.

External panelists [3] = assay: Line scale sensory test, Example 6, fructose as sweetener, pH 7.1; design: Average Sweetness / Average Bitterness: scale not given here
Method: Sensory evaluations were performed using fructose as the sweetener and 3-(4-amino-2,2-dioxide-1H-benzo[c][1,2,6]thiadiazin-5-yloxy)-2′,2′-dimethyl-N-propylpropanamide as the sweetness enhancer, using methods similar to those using sucrose, above. […]

Panelists [4] = assay: Paired comparison taste test, Example 7, sucrose or fructose solutions; conditions: vs 6% Fructose + 25 μM compound, N = 25
Method: as §1, with “3-(4-amino-2,2-dioxide-1H-benzo[c][1,2,6]thiadiazin-5-yloxy)-2′,2′-dimethyl-N-propylpropanamide 3-(4-amino-2,2-dioxide-1H-benzo[c][1,2,6]thiadiazin-5-yloxy)-2′,2′-dimethyl-N-propylpropanamide” for “5-(neopentyloxy)-1H-benzo[c][1,2,6]thiadiazin-4-amino-2,2-dioxide”, “enhancing the” for “enhancing”, “sucrose” for “sucrose,”, “3-(4-amino-2,2-dioxide-1H-benzo[c][1,2,6]thiadiazin-5-yloxy)-2′,2′-dimethyl-N-propylpropanamide 3-(4-amino-2,2-dioxide-1H-benzo[c][1,2,6]thiadiazin-5-yloxy)-2′,2′-dimethyl-N-propylpropanamide.” for “5-(neopentyloxy)-1H-benzo[c][1,2,6]thiadiazin-4-amino-2,2-dioxide.”
Panelists evaluated two solutions in a paired comparison taste test procedure. They were instructed to select the sweeter of the two samples. They were also asked to comment on how difficult it was to tell the difference in sweetness between both samples and if any off tastes were perceived.
Panelists evaluated two solutions in a paired comparison taste test procedure and were instructed to select the sweeter of the two samples.

[5] = 6% Sucrose + 25 μM compound, pH 7.1, n = 32

CC(C)(C)COc1cccc2c1C(N)=NS(=O)(=O)N2 [5-(neopentyloxy)-1H-benzo[c][1,2,6]thiadiazin-4-amino-2,2-dioxide]
off tastes (External panelists [1]; 35.3 μM (10 ppm) compound in LSB or 6% sucrose): no significant off tastes | Average Bitterness (External panelists [1]; [5]): 0.3 | Average Sweetness (External panelists [1]; [5]): 8.7 | Average Bitterness (External panelists [1]; 6% Sucrose + 35.3 μM (10 ppm) compound, n = 14): 0.6 | Sweetness vs sucrose solutions (conclusion) (External panelists [1]; 6% Sucrose + 35.3 μM (10 ppm) compound, p>0.10): not significantly different in sweetness from 8%, 9%, 10% sucrose | Average Sweetness (External panelists [1]; 6% Sucrose + 35.3 μM (10 ppm) compound, pH 7.1, n = 14): 9.3 | Sweetness vs sucrose solutions (conclusion) (External panelists [1]; 6% sucrose + 25 μM compound): not significantly different in sweetness properties compared to 9% and 10% sucrose solutions | off tastes (External panelists [1]; 6% sucrose + 25 μM compound): No significant off tastes | Average Bitterness (External panelists [1]; LSB + 35.3 μM (10 ppm) compound, no sucrose, n = 14): 0.3 | Average Sweetness (External panelists [1]; LSB + 35.3 μM (10 ppm) compound, no sucrose, pH 7.1, n = 14): 0.2 | Sweetness vs sucrose solutions (conclusion) (External panelists [1]; LSB + 35.3 μM (10 ppm) compound, p>0.10): not significantly different in sweetness than 0% sucrose | Sample selected as sweeter by panelists, Total (Panelists [2]; Flavored Water with 6% Sucrose + 2.3 ppm (6.49 μM) compound chosen, vs 9% Sucrose, n = 45): 23 | Sweetness comparison (conclusion) (Panelists [2]; Flavored Water with 6% Sucrose + 2.3 ppm (6.49 μM) compound vs 9% Sucrose, p>0.10): not significantly different in sweetness

O=C(CO)[C@@H](O)[C@H](O)[C@H](O)CO [Fructose, fructose]
Average Sweetness (External panelists [3]; 2% Fructose, Table 29, n = 30): 2.2 | Average Bitterness (External panelists [3]; 2% Fructose, Table 30, n = 30): 0.4 | Average Sweetness (External panelists [3]; 4% Fructose, Table 29, n = 30): 4.5 | Average Bitterness (External panelists [3]; 4% Fructose, Table 30, n = 30): 0.5 | Average Sweetness (External panelists [3]; 6% Fructose, Table 29, n = 30): 5.9 | Average Bitterness (External panelists [3]; 6% Fructose, Table 30, n = 30): 0.4 | Average Sweetness (External panelists [3]; 6% Fructose, Table 31, n = 14): 7.1 | Average Bitterness (External panelists [3]; 6% Fructose, Table 32, n = 14): 0.7 | Average Sweetness (External panelists [3]; 6% Fructose, Table 33, n = 26): 6.9 | Average Bitterness (External panelists [3]; 6% Fructose, Table 34, n = 26): 0.2 | Average Sweetness (External panelists [3]; 8% Fructose, Table 31, n = 14): 8.3 | Average Bitterness (External panelists [3]; 8% Fructose, Table 32, n = 14): 0.3 | Average Sweetness (External panelists [3]; 8% Fructose, Table 33, n = 26): 8.6 | Average Bitterness (External panelists [3]; 8% Fructose, Table 34, n = 26): 0.3 | Average Sweetness (External panelists [3]; 9% Fructose, Table 31, n = 14): 9.4 | Average Bitterness (External panelists [3]; 9% Fructose, Table 32, n = 14): 0.3 | Average Sweetness (External panelists [3]; 9% Fructose, Table 33, n = 26): 9.3 | Average Bitterness (External panelists [3]; 9% Fructose, Table 34, n = 26): 0.1 | Average Sweetness (External panelists [3]; 10% Fructose, Table 31, n = 14): 11.1 | Average Bitterness (External panelists [3]; 10% Fructose, Table 32, n = 14): 0.2 | Average Sweetness (External panelists [3]; 10% Fructose, Table 33, n = 26): 9.5 | Average Bitterness (External panelists [3]; 10% Fructose, Table 34, n = 26): 0.1 | Sample selected as sweeter by panelists, Test 1 (Panelists [4]; 6% Fructose chosen): 5 | Sample selected as more sweet by panelists, Test 1 (Panelists [4]; 7% Fructose chosen): 13
